By melting point is commonly meant the temperature of the solid-liquid transition. Compound `Fc1ccc2c(c1)Cc1sc(NCCCN3CCOCC3)nc1-2` came in with a melting point of 113 to 115 °C.

`COc1cccc(OC2COc3ccc(O)cc3C2O)c1` (centres undefined) returned a melting point of 187 to 189 °C.

As for `OCc1c(Cl)cc(Cl)cc1Br`, the melting point lay within 111 to 112 °C.

As for `NS(=O)(=O)c1ccc(-c2noc(-c3cnn4c(C5CC5)cc(-c5ccc(C(F)(F)F)cc5)nc34)n2)cc1`, the melting point stood at 313 °C.

On to `CC(=O)CCc1ccc2c(c1)COc1ccc(OCc3ccc4cc(F)c(Cl)cc4n3)cc1C2SCCC(=O)O` (centres undefined), for which the melting point lay in the range of 115 to 118 °C.

On to `O=C1c2ccccc2-c2ccncc21`, for which the melting point fell in the range of 152 to 153 °C.

`C=CCc1cc(C(C)=O)c(O)cc1OCCCCC` returned a melting point of 54 °C.

Consider `CCCCCCCCCCCCC1CC(=O)N(NC(=O)CCc2cc(C(C)(C)C)c(O)c(C(C)(C)C)c2)C1=O` (centres undefined), for which the melting point lay in the range of 55 to 60 °C.

Take `CC(C(=O)O)c1ccc2c(c1)C(=O)CC(C(C)C)O2` (centres undefined): the melting point fell in the range of 94 to 95 °C.

In the case of `Cc1cc(C)c2cccc(OCc3c(Cl)ccc(S(=O)(=O)N4CCC[C@H]4C(=O)N4CCN(C(=O)c5ccc(C=NN)cn5)CC4)c3Cl)c2n1`, the melting point lay within 150 to 155 °C.

The compound `COCCOc1ccccc1-c1cc2[nH]c3ccc(OCc4ccccc4)cc3c2c2c1C(=O)NC2=O` displayed a melting point of 157 to 159 °C.

As for `COC(=O)CCSCCOC1OC(COC(C)=O)C(OC(C)=O)C(OC(C)=O)C1OC(C)=O` (centres undefined), the melting point fell in the range of 81 to 82 °C.

Consider `COc1ccc(CCc2cc3c(s2)-n2c(C)nnc2CN=C3c2ccccc2Cl)cc1`, for which the melting point fell in the range of 100 to 105 °C.

Compound `COc1ccc(OC)c(C(=O)c2cccc([N+](=O)[O-])c2)c1` had a melting point of 98 °C.

`CC(=O)n1cnc2c(CBr)cccc21` yielded a melting point of 109 to 112 °C.

As to `NCCNC(=O)c1nc(Cl)c(N)nc1N`, the melting point lay within 173 to 174 °C.

Take `CCN1C(=O)CCC(C)(C)c2cc([N+](=O)[O-])ccc21`: the melting point turned out to be 67 °C.

Take `Cc1cc(OCc2ccccc2)c2cc(C(N)=O)[nH]c2c1`: the melting point is 185 to 187 °C.

As to `O=S(=O)(CCNc1ccc(Cl)c(C(F)(F)F)c1)NCCCOc1cccc(CN2CCCCC2)c1`, the melting point lay within 115 to 120 °C.

Compound `O=c1[nH]c(CCl)c(Br)c(=O)[nH]1` gave a melting point of 245 °C.

`Cc1cc(-c2nn(-c3cccc(C(F)(F)F)c3)ccc2=O)n(-c2ccccc2)n1` gave a melting point of 167 to 168 °C.

Take `C=Cc1cnc2c(NC(=O)c3c(Cl)cccc3Cl)cccc2c1CCO`: the melting point was in the range of 133 to 135 °C.

Compound `CCCCc1nc2c(N)nc3ccccc3c2n1CCOCC#Cc1ccccc1` came in with a melting point of 133 to 140 °C.

As to `CSc1ccc2nccn2n1`, the melting point was in the range of 66 to 68 °C.

Compound `O=C(O)C(=O)c1ccco1` came in with a melting point of 81 to 91 °C.

On to `CCn1c(N)c(C(=O)NC)c(=O)c2ccc(Cl)nc21`, for which the melting point is 283 to 286 °C.

Turning to `C[Si](C)(C)c1ccc(-c2nccc3ccccc23)cc1`, the melting point was 93.5 °C.

Compound `FC(F)Oc1ccc2c(Cc3c(Cl)cncc3Cl)nnc(-n3cncn3)c2c1` registered a melting point of 220 to 224 °C.

As to `CC(C)n1c(=O)n(C(N)=O)c2ccccc21`, the melting point was in the range of 195 to 196 °C.

`CC(=O)C1CCC2C3CCC4CC(O)C(F)CC4(C)C3C(=O)CC12C` (centres undefined): the melting point is 174 to 178 °C.

The compound `CC(=O)Oc1ccc(C(C)C)c(NC(=O)CN2CCN(CCSc3nc4ccccc4o3)CC2)c1C(C)C` returned a melting point of 129 to 131 °C.

Regarding `O=C1CCC(N2C(=O)c3cccc(CNC(=O)c4cccc(Br)n4)c3C2=O)C(=O)N1` (centres undefined), the melting point lay in the range of 181 to 183 °C.

In turn, `CC(C)(SCC(=O)O)C(NS(=O)(=O)c1ccc(Oc2ccc(F)cc2)cc1)C(=O)O` (centres undefined) had a melting point of 69 °C.

`CC1Nc2ccc(-c3csc(C#N)c3)cc2C2(CCCC2)O1` (centres undefined) displayed a melting point of 103 to 104 °C.

`CC(C)C1(C)C(=O)N=C2c3ccccc3C(=O)N21` (centres undefined) had a melting point of 98 to 100 °C.

`CCOC(=O)C1=NN(c2cccc(Cl)c2)C(c2ccccc2)CO1` (centres undefined) registered a melting point of 103 to 104 °C.

In turn, `O=C(NCCc1ccccn1)c1ccccc1-c1ccccc1CNS(=O)(=O)c1ccccc1` registered a melting point of 131 °C.

Turning to `CC(C(=O)OCN1C(=O)CCC(N2C(=O)c3ccccc3C2=O)C1=O)N(C)C(=O)OC(C)(C)C` (centres undefined), the melting point fell in the range of 123 to 125 °C.

As for `NC(=NCC(F)(F)F)Nc1nc(CO)ns1`, the melting point lay within 123 to 125 °C.

As for `CC(C)(C)NCc1cc(Br)cc(Br)c1O`, the melting point fell in the range of 173 to 175 °C.

The compound `CCN(CC)c1ccc(N)cc1C#N` came in with a melting point of 63 to 66 °C.

Compound `CC[C@H](NS(=O)(=O)c1ccc(OC)cc1)C(=O)OC(C)(C)C` yielded a melting point of 82 °C.

In turn, `C#CCNC(NCCSCc1[nH]cnc1C)=C(C#N)C#N` yielded a melting point of 112 to 115 °C.

On to `COc1ccc(-c2ccc(N(C)C)cc2)cc1C=O`, for which the melting point was 113 to 115 °C.

Compound `CCn1c(N)nc(N2CCc3ccccc3CC2)c(C#N)c1=O` yielded a melting point of 195 to 203 °C.

For the compound `CCOC(=O)C(=CNc1cccc(C2=NC(C)(C)Cc3cc(OC)c4c(c32)CC(C)(C)O4)c1)C(=O)OCC`, the melting point lay within 115 to 117 °C.

For `N#Cc1nn(-c2c(Cl)cc(C(F)(F)F)cc2Cl)c(-n2cccc2)c1S(=O)C(F)(F)F` (centres undefined), the melting point lay in the range of 165 to 167 °C.

In turn, `CCCNC(=O)NC1Cc2ccc(C3=NNC(=O)CC3)cc2C1` (centres undefined) registered a melting point of 214 to 216 °C.

In turn, `CN1CCCC1=NC(=O)Nc1c(Cl)cccc1Cl` yielded a melting point of 134 to 136 °C.

For `COc1ccc2c(C3NCCc4ccccc43)c(O)ccc2c1` (centres undefined), the melting point was in the range of 148 to 151 °C.

Regarding `COc1cccc2c(=O)cc(C=Cc3ccc(C(=O)O)cc3)oc12`, the melting point is 298 to 300 °C.

Turning to `CN1CCN(C2=C3N=c4cc(Cl)ccc4=C3Oc3ccccc3N2C)CC1`, the melting point fell in the range of 187 to 188 °C.

`COC(=O)Cc1c(F)cc(O)cc1F` returned a melting point of 75.5 to 77.5 °C.

Consider `Cc1cccc(C(=O)O)c1OCc1ccc(C(F)(F)F)cc1`, for which the melting point lay in the range of 104 to 106 °C.

On to `COC(=O)C(=O)c1ccc(OCCOc2ccc3ccccc3c2)c(C)c1`, for which the melting point lay in the range of 118 to 119 °C.

`O=C(O)c1cc(-n2nc3n(c2=O)CCCC3)c(F)cc1Cl` registered a melting point of 91 to 94 °C.

`COc1ccc(-c2cc3cc(F)c(F)cc3[nH]2)cc1NC(=S)N[C@@H](COC(C)(C)C)C(=O)OC(C)(C)C` yielded a melting point of 111 to 114 °C.

`CC1C=C2CCCCCCCCCC=C2C1` (centres undefined) displayed a melting point of 98 to 103 °C.

The compound `COC(=O)[C@H](CSC(=O)N(C)C)NC(C)=O` came in with a melting point of 119 to 121 °C.

For the compound `OCCNc1cc(Nc2ccc(Nc3ccccc3)cc2)ncn1`, the melting point fell in the range of 154 to 155 °C.

Consider `C=C(c1ccccc1)C(O)C(NC=O)C(=O)OC` (centres undefined), for which the melting point is 173 to 174 °C.

`CC(C)(C)c1cc(C(=O)OCCN(CCO)C(=O)c2cc(C(C)(C)C)c(O)c(C(C)(C)C)c2)cc(C(C)(C)C)c1O` gave a melting point of 174 to 178 °C.

Turning to `CCCCCc1ccc(C#Cc2c3ccccc3c3ccc4c(C#Cc5ccc(CCCCC)cc5)c5ccccc5c5ccc2c3c45)cc1`, the melting point lay within 256 to 257 °C.

In turn, `Oc1nsnc1-c1c(Cl)cccc1Cl` had a melting point of 194 to 195 °C.

Take `CNC[C@@H]1c2ccccc2Oc2ccc(Cl)cc2[C@H]1C(=O)O` (relative stereo): the melting point was 154 °C.

On to `CCCCn1ccc(C=O)cc1=O`, for which the melting point fell in the range of 36 to 40 °C.

The compound `COc1cc2c(cc1OC)C1Cc3cc4c(cc3CC(=O)N1CC2)OCO4` (centres undefined) gave a melting point of 207 to 209 °C.

As for `Cc1c2n(c(=O)[nH]c1=O)CCCS2`, the melting point was in the range of 196 to 198 °C.

In the case of `CNCC1Cc2cc(C)cc(-c3cccc(OC)c3OC)c2O1` (centres undefined), the melting point lay in the range of 85 to 89 °C.

`CC(CNc1ccc(C(=O)O)cc1)Oc1ccc(Cl)c2ccccc12` (centres undefined) displayed a melting point of 165 to 168 °C.

Compound `O=C(O)CSCc1cccc(NC(=O)c2cc(-c3ccccc3)oc2C(F)(F)F)c1` had a melting point of 178 to 182 °C.

Compound `Cc1c(C(=O)N(C)N2CC=CCC2)nn(-c2ccc(Cl)cc2Cl)c1-c1ccc(Cl)cc1` came in with a melting point of 138 °C.

`N#CC(C(=O)CF)c1cccc(Cl)c1` (centres undefined) displayed a melting point of 90 to 96 °C.

For `CCOC(=O)Cn1cc2c(n1)-c1ccccc1N(C(=O)c1ccc(NC(=O)c3ccc(Cl)cc3Cl)cc1)CC2`, the melting point lay in the range of 164 to 167 °C.

In the case of `COc1ccc(N2CCN(c3c(C)c(C)c4c(c3C)C(c3ccc(F)nc3)C(C)(C)O4)CC2)cc1` (centres undefined), the melting point lay in the range of 87 to 88 °C.

On to `FC(F)(F)Oc1ccc(-c2ccc(CCl)cn2)cc1`, for which the melting point was in the range of 34 to 36 °C.

Take `CCCCCS(=O)(=O)NC(=O)CCc1cc(OCCCC)nn1Cc1ccc(C(F)(F)F)cc1Cl`: the melting point is 131 to 133 °C.

On to `O=C(Nc1ccc(CN2CCCCC2)cc1)C1=Cc2cc(-c3ccccc3)ccc2CC1`, for which the melting point is 163 to 164 °C.

In the case of `COc1cccc(C(=O)c2cc3ccc(OC)cc3o2)c1`, the melting point was 63 to 65 °C.

The compound `NCC(=O)NCCCn1cc(-c2ccccc2)c2ccccc2c1=O` showed a melting point of 141 °C.

Consider `COC(=O)C1C(N2C(=O)c3ccccc3C2=O)C(=O)N1Cc1ccc(OC)cc1` (centres undefined), for which the melting point was 141 to 142 °C.

`CC(=O)ONC(=N)c1ccc(-c2ccc(-c3ccc(C(=N)NOC(C)=O)cc3C)o2)nc1` yielded a melting point of 226 to 229 °C.

For `CN(C)S(=O)(=O)c1ccc2c(C=O)c[nH]c2c1`, the melting point lay within 250 to 252 °C.

In turn, `CC(=O)SC1CN(C(=O)OCc2ccccc2)C1` displayed a melting point of 94.5 to 95.5 °C.

On to `CN(C)Cc1ccc(CSCCNC2=NS(=O)(=O)C(C(=O)N(C)C)=C2N)o1`, for which the melting point lay within 101 to 104 °C.

Compound `COc1ccc(C2NC(C(=O)O)C(C)(C)S2)c(C(=O)O)c1OC` (centres undefined) had a melting point of 90 to 91 °C.

Compound `COc1ccc(Cc2ccc3nc(N)nc(N)c3c2)cc1` registered a melting point of 207 to 209 °C.

In turn, `COc1ccc2[nH]c3c(c2c1)C1C(=O)OC(=O)C1C(c1ccccc1Cl)C3` (centres undefined) had a melting point of 189 to 191 °C.

`O=C(O)COc1ccc2c(c1)C[C@H](NC[C@H](O)c1cccc(Cl)c1)CCC2`: the melting point was 265 to 266 °C.
